Results as given in the OligoGym collection.
HELM strings list units from the 5' end as sugar, base in round brackets, then linkage (d deoxyribose, r ribose, m 2'-O-methyl, p phosphodiester). Strings are as the collection lists them; they lack the last nucleoside at the 3' end of the tested compound. [moe] = 2'-O-(2-methoxyethyl) (MOE); [sp] = phosphorothioate linkage; [m5C] = 5-methylcytosine

What follows are substances tested against ATXN2 (assay: mouse, dose not given). Conditions: ASO.
Substance “RNA1{[moe](A)[sp].[moe](G)p.[moe]([m5C])p.[moe](A)p.[moe](T)p.d(G)[sp].d(A)[sp].d(T)[sp].d([m5C])[sp].d(T)[sp].d(T)[sp].d(G)[sp].d(T)[sp].d(G)[sp].d(T)[sp].[moe](A)p.[moe](T)p.[moe](A)[sp].[moe](T)}$$$$ (last 3' nucleoside missing)” has a 3 h FOB score of 3 score 0-7.
Work on “RNA1{[moe](A)[sp].[moe](G)p.[moe]([m5C])p.[moe](A)p.[moe](T)p.d([m5C])[sp].d(A)[sp].d(T)[sp].d(T)[sp].d(G)[sp].d(G)[sp].d([m5C])[sp].d(G)[sp].d([m5C])[sp].d(A)[sp].[moe](T)p.[moe](G)p.[moe](G)[sp].[moe](G)}$$$$ (last 3' nucleoside missing)” yielded a 3 h FOB score of 5 score 0-7.
“RNA1{[moe](A)[sp].[moe](G)p.[moe]([m5C])p.[moe](A)p.[moe]([m5C])p.d(A)[sp].d(T)[sp].d(G)[sp].d(A)[sp].d(T)[sp].d(T)[sp].d(G)[sp].d(T)[sp].d(A)[sp].d(A)[sp].[moe](A)p.[moe]([m5C])p.[moe](T)[sp].[moe](A)}$$$$ (last 3' nucleoside missing)” showed a 3 h FOB score of 6 score 0-7.
“RNA1{[moe](A)[sp].[moe](G)p.[moe]([m5C])p.[moe](T)p.[moe](T)p.[moe](A)p.d(G)[sp].d(A)[sp].d(G)[sp].d(T)[sp].d(T)[sp].d(T)[sp].d(T)[sp].d(T)[sp].d(G)[sp].d([m5C])[sp].[moe]([m5C])p.[moe](T)[sp].[moe](T)}$$$$ (last 3' nucleoside missing)” showed a 3 h FOB score of 5 score 0-7.
Substance “RNA1{[moe](A)[sp].[moe](G)p.[moe]([m5C])p.[moe](T)p.[moe](T)p.d(A)[sp].d(G)[sp].d(A)[sp].d(G)[sp].d(T)[sp].d(T)[sp].d(T)[sp].d(T)[sp].d(T)[sp].d(G)[sp].[moe]([m5C])p.[moe]([m5C])p.[moe](T)[sp].[moe](T)}$$$$ (last 3' nucleoside missing)” has a 3 h FOB score of 5 score 0-7.
Substance “RNA1{[moe](A)[sp].[moe](G)p.[moe]([m5C])p.[moe](T)p.[moe]([m5C])p.d(A)[sp].d(T)[sp].d([m5C])[sp].d(A)[sp].d(A)[sp].d(G)[sp].d(G)[sp].d(T)[sp].d(A)[sp].d([m5C])[sp].[moe]([m5C])p.[moe](A)p.[moe](G)[sp].[moe](T)}$$$$ (last 3' nucleoside missing)” has a 3 h FOB score of 4 score 0-7.
“RNA1{[moe](A)[sp].[moe](G)p.[moe]([m5C])p.[moe](T)p.[moe]([m5C])p.d(T)[sp].d(G)[sp].d(T)[sp].d(T)[sp].d([m5C])[sp].d(G)[sp].d(A)[sp].d(T)[sp].d(G)[sp].d([m5C])[sp].[moe](A)p.[moe](G)p.[moe](G)[sp].[moe](A)}$$$$ (last 3' nucleoside missing)” was tested, and the 3 h FOB score was 4 score 0-7.
“RNA1{[moe](A)[sp].[moe](G)p.[moe]([m5C])p.[moe](T)p.d(T)[sp].d(A)[sp].d(G)[sp].d(A)[sp].d(G)[sp].d(T)[sp].d(T)[sp].d(T)[sp].d(T)[sp].d(T)[sp].[moe](G)p.[moe]([m5C])p.[moe]([m5C])p.[moe](T)[sp].[moe](T)}$$$$ (last 3' nucleoside missing)” gave a 3 h FOB score of 4 score 0-7.
“RNA1{[moe](A)[sp].[moe](T)p.[moe](A)p.[moe](A)p.[moe](A)p.d([m5C])[sp].d(T)[sp].d(G)[sp].d(T)[sp].d(T)[sp].d(T)[sp].d(A)[sp].d([m5C])[sp].d(A)[sp].d(T)[sp].[moe]([m5C])p.[moe](T)p.[moe]([m5C])[sp].[moe]([m5C])}$$$$ (last 3' nucleoside missing)” was tested, and the 3 h FOB score was 4 score 0-7.
For “RNA1{[moe](A)[sp].[moe](T)p.[moe](A)p.[moe]([m5C])p.[moe](G)p.d([m5C])[sp].d(G)[sp].d(G)[sp].d(T)[sp].d(G)[sp].d(A)[sp].d(A)[sp].d(T)[sp].d(T)[sp].d([m5C])[sp].[moe](T)p.[moe](G)p.[moe](T)[sp].[moe]([m5C])}$$$$ (last 3' nucleoside missing)”, the 3 h FOB score was 1 score 0-7.
“RNA1{[moe](A)[sp].[moe](T)p.[moe](A)p.[moe]([m5C])p.[moe](T)p.d([m5C])[sp].d(T)[sp].d([m5C])[sp].d([m5C])[sp].d(A)[sp].d(T)[sp].d(T)[sp].d(A)[sp].d(T)[sp].d(T)[sp].[moe](T)p.[moe]([m5C])p.[moe](T)[sp].[moe](T)}$$$$ (last 3' nucleoside missing)” showed a 3 h FOB score of 0 score 0-7.
With “RNA1{[moe](A)[sp].[moe](T)p.[moe](G)p.[moe](A)p.[moe](T)p.d([m5C])[sp].d(T)[sp].d(T)[sp].d(G)[sp].d(T)[sp].d(G)[sp].d(T)[sp].d(A)[sp].d(T)[sp].d(A)[sp].[moe](T)p.[moe](A)p.[moe](T)[sp].[moe](T)}$$$$ (last 3' nucleoside missing)” the 3 h FOB score was 6 score 0-7.
With “RNA1{[moe](A)[sp].[moe](T)p.[moe](G)p.[moe](T)p.[moe](A)p.d(G)[sp].d(T)[sp].d(T)[sp].d(A)[sp].d([m5C])[sp].d(A)[sp].d(T)[sp].d(G)[sp].d(T)[sp].d(A)[sp].[moe](A)p.[moe]([m5C])p.[moe]([m5C])[sp].[moe](A)}$$$$ (last 3' nucleoside missing)” the 3 h FOB score was 2 score 0-7.
“RNA1{[moe](A)[sp].[moe](T)p.[moe](G)p.[moe]([m5C])p.[moe](A)p.d(A)[sp].d([m5C])[sp].d(T)[sp].d(T)[sp].d(A)[sp].d(A)[sp].d(T)[sp].d(A)[sp].d(A)[sp].d([m5C])[sp].[moe]([m5C])p.[moe](T)p.[moe](T)[sp].[moe](A)}$$$$ (last 3' nucleoside missing)” showed a 3 h FOB score of 0.25 score 0-7.
With “RNA1{[moe](A)[sp].[moe](T)p.[moe](G)p.[moe]([m5C])p.[moe](A)p.d(G)[sp].d(T)[sp].d(A)[sp].d([m5C])[sp].d(A)[sp].d(A)[sp].d([m5C])[sp].d(A)[sp].d(T)[sp].d(T)[sp].[moe]([m5C])p.[moe]([m5C])p.[moe](A)[sp].[moe](T)}$$$$ (last 3' nucleoside missing)” the 3 h FOB score was 0 score 0-7.
Substance “RNA1{[moe](A)[sp].[moe](T)p.[moe](G)p.[moe]([m5C])p.[moe](A)p.d([m5C])[sp].d(T)[sp].d(G)[sp].d([m5C])[sp].d(T)[sp].d(T)[sp].d(G)[sp].d([m5C])[sp].d([m5C])[sp].d(T)[sp].[moe](G)p.[moe](G)p.[moe](A)[sp].[moe](G)}$$$$ (last 3' nucleoside missing)” has a 3 h FOB score of 5 score 0-7.
Substance “RNA1{[moe](A)[sp].[moe](T)p.[moe](G)p.[moe]([m5C])p.[moe](T)p.d(G)[sp].d(G)[sp].d(T)[sp].d(T)[sp].d([m5C])[sp].d([m5C])[sp].d(T)[sp].d(T)[sp].d(A)[sp].d([m5C])[sp].[moe](A)p.[moe](A)p.[moe](T)[sp].[moe](T)}$$$$ (last 3' nucleoside missing)” has a 3 h FOB score of 0 score 0-7.
“RNA1{[moe](A)[sp].[moe](T)p.[moe](T)p.[moe](T)p.[moe](T)p.d(G)[sp].d(A)[sp].d(A)[sp].d(T)[sp].d(T)[sp].d(A)[sp].d([m5C])[sp].d(A)[sp].d(A)[sp].d(T)[sp].[moe](G)p.[moe]([m5C])p.[moe](G)[sp].[moe](G)}$$$$ (last 3' nucleoside missing)” showed a 3 h FOB score of 0 score 0-7.
Substance “RNA1{[moe](A)[sp].[moe](T)p.[moe](T)p.[moe]([m5C])p.[moe](T)[sp].d(G)[sp].d(T)[sp].d(A)[sp].d([m5C])[sp].d(T)[sp].d(T)[sp].d(T)[sp].d(T)[sp].[moe]([m5C])p.[moe](T)p.[moe]([m5C])[sp].[moe](A)}$$$$ (last 3' nucleoside missing)” has a 3 h FOB score of 0 score 0-7.
With “RNA1{[moe](A)[sp].[moe](T)p.[moe](T)p.[moe]([m5C])p.[moe](T)p.d(G)[sp].d(T)[sp].d(A)[sp].d([m5C])[sp].d(T)[sp].d(T)[sp].d(T)[sp].d(T)[sp].d([m5C])[sp].d(T)[sp].[moe]([m5C])p.[moe](A)p.[moe](T)[sp].[moe](G)}$$$$ (last 3' nucleoside missing)” the 3 h FOB score was 1 score 0-7.
“RNA1{[moe](A)[sp].[moe](T)p.[moe]([m5C])p.[moe](A)p.[moe](A)p.d([m5C])[sp].d(T)[sp].d([m5C])[sp].d([m5C])[sp].d(A)[sp].d(A)[sp].d(A)[sp].d(G)[sp].d(G)[sp].d(T)[sp].[moe](A)p.[moe](G)p.[moe]([m5C])[sp].[moe](A)}$$$$ (last 3' nucleoside missing)” showed a 3 h FOB score of 6 score 0-7.
Substance “RNA1{[moe](A)[sp].[moe](T)p.[moe]([m5C])p.[moe](A)p.[moe](G)p.d(T)[sp].d(A)[sp].d(T)[sp].d(T)[sp].d(T)[sp].d(A)[sp].d([m5C])[sp].d(T)[sp].d(A)[sp].d([m5C])[sp].[moe](T)p.[moe](T)p.[moe]([m5C])[sp].[moe](T)}$$$$ (last 3' nucleoside missing)” has a 3 h FOB score of 2.75 score 0-7.
“RNA1{[moe](A)[sp].[moe](T)p.[moe]([m5C])p.[moe](A)p.[moe](G)p.d(T)[sp].d(T)[sp].d(T)[sp].d(G)[sp].d(T)[sp].d(A)[sp].d(T)[sp].d(G)[sp].d(A)[sp].d([m5C])[sp].[moe]([m5C])p.[moe](A)p.[moe](T)[sp].[moe](A)}$$$$ (last 3' nucleoside missing)” showed a 3 h FOB score of 3 score 0-7.
“RNA1{[moe](A)[sp].[moe](T)p.[moe]([m5C])p.[moe](A)p.[moe](T)[sp].d([m5C])[sp].d(A)[sp].d(T)[sp].d(T)[sp].d(T)[sp].d(T)[sp].d([m5C])[sp].d([m5C])[sp].[moe](A)p.[moe](G)p.[moe](G)[sp].[moe](G)}$$$$ (last 3' nucleoside missing)” showed a 3 h FOB score of 4.5 score 0-7.
For “RNA1{[moe](A)[sp].[moe](T)p.[moe]([m5C])p.[moe](T)p.[moe](A)p.d(T)[sp].d(G)[sp].d(A)[sp].d(T)[sp].d(T)[sp].d(T)[sp].d(T)[sp].d([m5C])[sp].d(A)[sp].d(T)[sp].[moe]([m5C])p.[moe](A)p.[moe](G)[sp].[moe](G)}$$$$ (last 3' nucleoside missing)”, the 3 h FOB score was 0 score 0-7.
“RNA1{[moe](A)[sp].[moe]([m5C])p.[moe](A)p.[moe](G)p.[moe](T)p.d(T)[sp].d(T)[sp].d([m5C])[sp].d(A)[sp].d([m5C])[sp].d(T)[sp].d(A)[sp].d(G)[sp].d(G)[sp].d(T)[sp].[moe](T)p.[moe]([m5C])p.[moe](T)[sp].[moe]([m5C])}$$$$ (last 3' nucleoside missing)” showed a 3 h FOB score of 3.25 score 0-7.
“RNA1{[moe](A)[sp].[moe]([m5C])p.[moe](A)p.[moe](T)p.[moe](A)p.d(G)[sp].d(G)[sp].d(T)[sp].d(T)[sp].d(A)[sp].d(G)[sp].d(A)[sp].d(A)[sp].d(T)[sp].d(T)[sp].[moe](T)p.[moe](T)p.[moe]([m5C])[sp].[moe]([m5C])}$$$$ (last 3' nucleoside missing)” showed a 3 h FOB score of 1 score 0-7.
